Assay results taken from patent publication US20110224297A1, “Methods of administering prostratin and structural analogs thereof” (priority 2008, published 2011).
Like-named read-outs stand apart in the source and are kept apart here.

Experiments:
[1] = Stability in the formulation vehicle for in vivo studies; type: physicochemical; conditions: 10% DMSO: 10% Cremophor: 80%:0.9% Saline; even at 37° C. for at least 2 hr
Experimental: Drug was dissolved in vehicle (10% DMSO: 10% Cremophor: 80%:0.9% Saline) and then incubated at four different temperatures (37° C., RT, 4° C., and −20° C.) for up to 2 hr. Prostratin is stable in this formulation even at 37° C. for at least 2 hr.

[2] = In vitro metabolism in mouse liver microsomes; type: in vitro ADME
Source text: (§1) In vitro metabolism of prostratin was investigated using mouse, rat, monkey, and human liver microsomes (Gentest). […] Attempts to identify the metabolite by LC/MS/MS were unsuccessful due to the low amounts present in the reaction mixtures (FIG. 1).

[3] = In vitro metabolism in human liver microsomes; type: in vitro ADME
Source text: as §1

[4] = tested on: latently infected ACH-2 cells; experiment: HIV expression (reverse transcriptase activity in supernatant) in latently infected ACH-2 cells; type: cell-based
Experimental: (§2) The effect of prostratin on virus replication was assessed in latently infected ACH-2 and U1 cells by measuring the accumulation of reverse transcriptase activity in the supernatant of stimulated cells (Gustafson et al., 1992, J Med Chem 35(11): 1978-86).
(§3) Briefly, 4×10^4 cells in 100 μl fresh medium were mixed with another 100 μl of medium with or without prostratin or PMA in a 96-well microtiter plate. Plates were incubated for 24-72 h at 37° C. Following incubation, supernatants were harvested, centrifuged (to remove any residual cells) and tested for reverse transcriptase activity as previously described (Gustafson et al., 1992, J Med Chem 35(11): 1978-86).
(§4) In these experiments, two concentrations of cells were tested (40,000 and 100,000 cells/well). It is noteworthy that the basal levels of reverse transcriptase activities were much higher in ACH-2 cells than in U1 cells.

[5] = tested on: latently infected U1 cells; experiment: HIV expression (reverse transcriptase activity in supernatant) in latently infected U1 cells; type: cell-based
Experimental: as §2, §3, §4

[6] = Dose-range finding study in monkeys and determination of MTD; type: in vivo, rhesus macaque monkeys; conditions: rhesus monkey, in vivo
Experimental: (§5) After a suitable wash-out period (15-20 days), monkeys that previously received 0.1 mg/kg, were administered a dose of 0.6 mg/kg, and those that previously received 0.4 mg/kg, were administered a second dose of 0.4 mg/kg. Blood was collected as before for clinical pathology and cytokine assay analysis. There was no mortality in this study. However both animals receiving 0.6 mg/kg prostratin required more time (2-4 times as much) to recover from Ketamine (used as a chemical restraint while weighing and dosing) after the second dosing compared with the initial doses. On day 3, all monkeys had elevated (2-3 fold) fibrinogen levels and there was evidence of dose-dependent hepatotoxicity.

[7] = tested on: rhesus macaque monkeys; experiment: as above; type: in vivo
Experimental: as §5

[8] = Pharmacokinetics following intravenous and oral administration to rats; type: in vivo; conditions: for Vd / half-life / bioavailability: male; for bioavailability: three male rats
Experimental: In order to find out the best route of administration and the correct concentration of prostratin, the drug was administered as an intravenous infusion over three hours as well as a single and twice oral administration to 3 groups of rats. The goal of this experiment was to find out if greater amounts of prostratin can be administered over a longer period of time. This would enable obtaining median higher concentrations in the blood for a longer period of time that would be close to effective concentration found in in vitro studies.

[9] = In vivo rat bone marrow micronucleus assay; design: species or system CD® (SD) IGS BR rat; conditions: CD (SD) IGS BR, rat, in vivo, once by oral gavage, dose range-finding study, read-out: maximum tolerated dose
Experimental: (§6) The objective of this study was to evaluate the test article, prostratin, for in vivo clastogenic activity and/or disruption of the mitotic apparatus by detecting micronuclei in polychromatic erythrocytes (PCE) in CD® (SD) IGS BR rat bone marrow.
(§7) In the dose range-finding study, the test article was dissolved in ethanol followed by dilution with 0.9% Sodium Chloride for Injection to achieve a final ethanol:saline vehicle (0.8:99.2 v/v) at the appropriate dosing concentrations. The formulations were administered once by oral gavage to three males and three females per dose level. The animals were dosed at 0.4, 0.5, 2, or 5 mg/kg and observed for up to 2 days after dosing for toxic signs and/or mortality.
(§8) Based on the results of the dose range-finding study, the maximum tolerated dose was estimated to be 2.4 mg/kg in the male animals and 2 mg/kg in the female animals. In the micronucleus assay, the test article was dissolved in ethanol followed by dilution with 0.9% Sodium Chloride for Injection to achieve a final ethanol:saline vehicle (0.8:99.2 v/v) at the appropriate dosing concentrations.
(§9) Bone marrow was extracted and at least 2000 PCEs per animal were analyzed for the frequency of micronuclei. Cytotoxicity was assessed by scoring the number of PCEs and normochromatic erythrocytes (NCEs) in at least the first 500 total erythrocytes for each animal.

[10] = tested on: polychromatic erythrocytes (PCE) in CD® (SD) IGS BR rat bone marrow; experiment: In vivo rat bone marrow micronucleus assay
Experimental: as §6, §7, §8, §9

[11] = all three females, 1.2-mg/kg oral dose, males 2.4 mg/kg
[12] = female Animal No. C24047, 0.8 mg/kg i.v. infusion
[13] = female Animal No. C24048, 0.8 mg/kg i.v. infusion
[14] = female Animal No. C24049, 0.8 mg/kg i.v. infusion
[15] = female Animal No. C24050, 1.2-mg/kg oral dose, males 2.4 mg/kg
[16] = female Animal No. C24055, Group 3

In the case of CC(=O)O[C@@]12C[C@@H](C)[C@@]3(O)[C@@H](C=C(CO)C[C@]4(O)C(=O)C(C)=C[C@@H]34)[C@@H]1C2(C)C [prostratin, 12-deoxyphorbol 13-acetate], the stability in formulation [1] was “stable”, the “metabolism (time-dependent loss of parent compound)” value [2] was “greatest” and the “metabolism (time-dependent loss of parent compound)” value [3] was “substantially less”. For the same molecule, the “lowest dose to get a reliable increase in reverse transcriptase activity” value [4] was 50 ng/mL, the “stimulation time at which sizeable reverse transcriptase activity is detected” value [4] was 24 h and the “short incubation (pulsed stimulation) time leading to detectable reverse transcriptase activity” value ([4]; none after 1 h and 4 h) was 6 h. For the same molecule, the “exposure time needed to observe acceptable reverse transcriptase activity” value [5] was “at least 48 h”, the “lowest dose to get a reliable increase in reverse transcriptase activity” value [5] was 50 ng/mL and the “short incubation (pulsed stimulation) time leading to detectable reverse transcriptase activity” value ([5]; none after 1 h and 4 h) was 6 h. The MTD at 15 days ([6]; both sexes, iv, monkeys, single bolus i.v. dose, read-out: MTD) was 0.4 to 0.6 mg/kg, the MTD at 15 days ([6]; intravenous, as restated in Example 13, read-out: MTD later found in monkeys at NIH) was 0.2 to 0.4 mg/kg and the “time to recover from Ketamine compared with the initial doses” value ([7]; 0.6 mg/kg) was 2-4 times. For the same molecule, the “increase in level of ALT and AST over baseline” value ([7]; 0.6 mg/kg dose group, day 3) was 25-50 fold, the “time after which plasma drug level is undetectable” value ([7]; 0.1 and 0.4 mg/kg i.v. bolus, day 1) was 4 h and the reversibility of toxicities ([7]; all clinical pathology measurements normal by day 15) was “reversible”. For the same molecule, the “elevation of fibrinogen levels” value ([7]; day 3, all monkeys) was 2-3 fold, the “CK and LD levels” value ([7]; day 3, dose-dependent) was “increases” and the “level of IL-6” value ([7]; female monkeys, 0.4 and 0.6 mg/kg) was “increase”. For the same molecule, the mortality ([7]; i.v. bolus 0.1, 0.4 and 0.6 mg/kg) was “no mortality”, the “toxicity at the initial doses” value ([7]; single intravenous bolus 0.1 or 0.4 mg/kg) was “absence of toxicity” and the “mean AUC0-1.5 relative to mean value for the males” value [8, 11] was about 5.5 fold. The “mean Cmax relative to mean value for the males” value [8, 11] was “approximately 6.2 fold”, the “AUC0-2 relative to mean AUC0-2 for the males” value [8, 12] was “approximately 4.2 fold” and the “plasma concentration at approximately 2 hours relative to mean male Cmax” value [8, 12] was “approximately 3.8 fold”. For the same molecule, the “AUC0-2 relative to mean AUC0-2 for the males” value [8, 13] was “approximately 1.4 fold”, the “plasma concentration at approximately 2 hours relative to mean male Cmax” value [8, 13] was “approximately 1.6 fold” and the “AUC0-3.083 relative to mean value for the males” value [8, 14] was about 2.6 fold. The “Cmax relative to mean value for the males” value [8, 14] was “approximately 3.7 fold”, the “AUC0-1.5 relative to mean value for the males” value [8, 15] was about 8.2 fold and the “Cmax relative to mean value for the males” value [8, 15] was “approximately 8.9 fold”. For the same molecule, the “AUC0-4 relative to mean value for the males” value ([8]; female Animal No. C24052, 1.2-mg/kg oral dose, males 2.4 mg/kg) was “approximately 9.6 fold”, the “Cmax relative to mean value for the three males” value ([8]; female Animal No. C24055, 1.8 mg/kg then 1.0 mg/kg oral, Group 3) was “approximately 6.0 fold” and the “AUC0-1.5 relative to mean value for the three males” value [8, 16] was about 5.9 fold. For the same molecule, the “AUC0-4 relative to mean value for the three males” value [8, 16] was about 8.2 fold, the “AUC0-10 relative to mean AUC0-10 for the males” value ([8]; last female of Group 2, 1.2-mg/kg oral dose, males 2.4 mg/kg) was “approximately 6.1 fold” and the “increase in exposure (mean AUC0-10) of 1.8-mg/kg BID versus single 2.4-mg/kg oral dose” value ([8]; male rats, Groups 3 and 2) was “approximately 1.5 fold”. The Vd ([8]; rat, plasma, iv, 0.8 mg/kg, male rats, 0.8 mg/kg i.v. infusion, read-out: mean Vss) was 2.22 L/kg, the Vd ([8]; rat, plasma, iv, 0.8 mg/kg, male rats, 0.8 mg/kg i.v. infusion, read-out: mean Vz) was 6.41 L/kg and the half-life ([8]; rat, plasma, iv, 0.8 mg/kg, male rats, after 3-hour intravenous infusion 0.8 mg/kg, read-out: mean t1/2 (converted)) was 2.49 h. It also gave a half-life ([8]; rat, plasma, po, 1.8 mg/kg, male Animal No. C24046, Group 3, 1.8 mg/kg BID oral, read-out: t1/2 (converted)) of 7.47 h, a half-life ([8]; rat, plasma, po, 1.8 mg/kg, male rats, 1.8 mg/kg BID oral, after the second dose, read-out: mean t1/2 (converted)) of 4.07 h and a half-life ([8]; rat, plasma, po, 2.4 mg/kg, male rats, single 2.4-mg/kg oral dose, read-out: mean t1/2 (converted)) of 2.08 h. For the same molecule, the bioavailability ([8]; rat, plasma, po, 2.4 mg/kg, single 2.4-mg/kg oral dose, read-out: Bioavailability (% F), mean) was 13.3%, the bioavailability ([8]; rat, plasma, po, 2.4 mg/kg, single 2.4-mg/kg oral dose, read-out: Bioavailability (% F), range) was 7.7 to 23.1% and the clearance ([8]; rat, plasma, iv, male rats, 0.8 mg/kg i.v. infusion, read-out: mean CL (converted)) was 2.05 L/h/kg. For the same molecule, the concentration at 4 h ([8]; rat, plasma, male rats, 1.8 mg/kg oral, Group 3, read-out: mean plasma concentration just prior to the second oral dose at 4 hours) was 0.0179 µg/mL, the Cmax ([8]; rat, plasma, male rats, 0.8-mg/kg intravenous infusion over 3 hours) was 0.159 µg/mL and the Cmax ([8]; rat, plasma, male rats, 1.8-mg/kg oral doses BID, following the second dose) was 0.0551 µg/mL. The Tmax ([8]; rat, plasma, male rats, 1.8-mg/kg oral doses BID, read-out: time at which Cmax was observed) was 0.25 to 0.5 h, the Cmax ([8]; rat, plasma, male rats, single 2.4-mg/kg oral dose) was 0.0497 µg/mL and the concentration at 4 h ([8]; rat, plasma, male rats, single 2.4-mg/kg oral dose, Group 2, read-out: mean plasma concentration at 4 hours postdose) was 0.0115 µg/mL. The MTD ([9]; female rats) was 2 mg/kg, the MTD ([9]; male rats) was 2.4 mg/kg and the “micronucleated PCEs” value ([10]; 0.5, 1, or 2 mg/kg for females, 0.6, 1.2, and 2.4 mg/kg for males) was “did not induce statistically significant increases”. The “cytotoxicity to the bone marrow (PCE:NCE ratios)” value ([10]; any dose of the test article) was “not cytotoxic”, the clinical observations ([10]; female animals, 2 mg/kg, approximately one hour post-dose, mortality, irregular respiration, piloerection, and/or recumbency) was “signs of clinical toxicity” and the “rat bone marrow micronucleus assay, overall” value ([10]; rat, in vivo) was “negative”.
